# Test results reported in ChEMBL document CHEMBL1201861, “Genomics of Drug Sensitity in Cancer screening data, Wellcome Trust Sanger Institute”.
# Several values for one entry are separate records, joined by “and”; a condition that tells them apart may be missing. Equal entries are not always repeated. Where a SMILES comes first, the peptide text is derived from it. The star is where a group is joined. Cbz = O=C(OCc1ccccc1)*
# Experiments:
# Experiment in all cases: cells
# ES4 = type: functional, cell-based, Homo sapiens;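 also: growth inhibition of human ES4 cells, read out by a cell viability assay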
# Description: SANGER: Inhibition of human ES4 cell growth in a cell viability assay.
# GI-ME-N = type: functional, cell-based, Homo sapiens;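 also: growth inhibition of human GI-ME-N cells, read out with a cell viability assay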
# Description: SANGER: Inhibition of human GI-ME-N cell growth in a cell viability assay.
# VA-ES-BJ = type: functional, cell-based, Homo sapiens;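 also: growth inhibition of the VA-ES-BJ cell line, read out by a cell viability assay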
# Description: SANGER: Inhibition of human VA-ES-BJ cell growth in a cell viability assay.
# MN-60 = type: functional, cell-based, Homo sapiens;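 also: growth inhibition of the MN-60 cell line, determined with a cell viability assay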
# Description: SANGER: Inhibition of human MN-60 cell growth in a cell viability assay.
# TGBC24TKB = type: functional, cell-based; conditions: Homo sapiens;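 also: growth inhibition of human TGBC24TKB cells, read out with a cell viability assay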
# Description: SANGER: Inhibition of human TGBC24TKB cell growth in a cell viability assay.
# HCC2218 = type: functional, cell-based, Homo sapiens;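 also: cell viability assay read-out, with IC50 given as the concentration that inhibits growth of the cell line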
# Description: SANGER: Inhibition of human HCC2218 cell growth in a cell viability assay.
# RXF 393 = type: functional, cell-based, Homo sapiens;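 also: growth inhibition of human RXF 393 cells, read out with a cell viability assay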
# Description: SANGER: Inhibition of human RXF393 cell growth in a cell viability assay.
# CTB-1 = type: functional, cell-based, Homo sapiens
# Description: SANGER: Inhibition of human CTB-1 cell growth in a cell viability assay.
# NCI-H446 = type: functional, cell-based, Homo sapiens;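 also: growth inhibition of NCI-H446 cells determined by a cell viability assay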
# Description: SANGER: Inhibition of human NCI-H446 cell growth in a cell viability assay.
# KURAMOCHI = type: functional, cell-based, Homo sapiens;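 also: growth inhibition of KURAMOCHI cells, read out with a cell viability assay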
# Description: SANGER: Inhibition of human KURAMOCHI cell growth in a cell viability assay.
# GOTO = type: functional, cell-based, Homo sapiens;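 also: growth inhibition of GOTO cells, read out by a cell viability assay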
# Description: SANGER: Inhibition of human GOTO cell growth in a cell viability assay.
# LU-139 = type: functional, cell-based, Homo sapiens
# Description: SANGER: Inhibition of human LU-139 cell growth in a cell viability assay.
# Mo = type: functional, cell-based, Homo sapiens
# Description: SANGER: Inhibition of human Mo-T cell growth in a cell viability assay.
# TGBC1TKB = type: functional, cell-based, Homo sapiens;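 also: growth inhibition of TGBC1TKB cells, read out by a cell viability assay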
# Description: SANGER: Inhibition of human TGBC1TKB cell growth in a cell viability assay.
# BB49-HNC = type: functional, cell-based, Homo sapiens;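 also: cell viability assay read-out, reported as inhibition of BB49-HNC cell growth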
# Description: SANGER: Inhibition of human BB49-HNC cell growth in a cell viability assay.
# KALS-1 = type: functional, cell-based, Homo sapiens; conditions: read-out: IC50;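 also: growth inhibition of KALS-1 cells, determined with a cell viability assay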
# Description: SANGER: Inhibition of human KALS-1 cell growth in a cell viability assay.
# no-10 = type: functional, cell-based, Homo sapiens;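 also: growth inhibition of no-10 cells, read out with a cell viability assay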
# Description: SANGER: Inhibition of human no-10 cell growth in a cell viability assay.
# SK-MEL-1 = type: functional, cell-based, Homo sapiens;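 also: growth inhibition of human SK-MEL-1 cells, read out by a cell viability assay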
# Description: SANGER: Inhibition of human SK-MEL-1 cell growth in a cell viability assay.
# MC116 = type: functional, cell-based, Homo sapiens;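 also: growth inhibition of MC116 cells, read out with a cell viability assay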
# Description: SANGER: Inhibition of human MC116 cell growth in a cell viability assay.
# KS-1 = type: functional, cell-based; conditions: Homo sapiens;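 also: growth inhibition of KS-1 cells, read out with a cell viability assay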
# Description: SANGER: Inhibition of human KS-1 cell growth in a cell viability assay.
# NOS-1 = type: functional, cell-based, Homo sapiens;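 also: growth inhibition of the human NOS-1 cell line, read out with a cell viability assay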
# Description: SANGER: Inhibition of human NOS-1 cell growth in a cell viability assay.
# ETK-1 = type: functional, cell-based, Homo sapiens;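 also: growth inhibition of human ETK-1 cells, read out with a cell viability assay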
# Description: SANGER: Inhibition of human ETK-1 cell growth in a cell viability assay.
# LB831-BLC = type: functional, cell-based, Homo sapiens;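 also: growth inhibition of LB831-BLC cells, read out with a cell viability assay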
# Description: SANGER: Inhibition of human LB831-BLC cell growth in a cell viability assay.
# MSTO-211H = type: functional, cell-based, Homo sapiens
# Description: SANGER: Inhibition of human MSTO-211H cell growth in a cell viability assay.
# EM-2 = type: functional, cell-based, Homo sapiens;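 also: growth inhibition of EM-2 cells, read out with a cell viability assay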
# Description: SANGER: Inhibition of human EM-2 cell growth in a cell viability assay.
# SH-4 = type: functional, cell-based; conditions: Homo sapiens;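 also: growth inhibition of SH-4 cells, read out with a cell viability assay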
# Description: SANGER: Inhibition of human SH-4 cell growth in a cell viability assay.
# KU812 cell line = type: functional, cell-based, Homo sapiens;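 also: growth inhibition of KU812 cells, read out with a cell viability assay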
# Description: SANGER: Inhibition of human KU812 cell growth in a cell viability assay.
# IST-MEL1 = type: functional, cell-based, Homo sapiens;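 also: growth inhibition of the cell line, read out with a cell viability assay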
# Description: SANGER: Inhibition of human IST-MEL1 cell growth in a cell viability assay.
# ONS-76 = type: functional, cell-based, Homo sapiens;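 also: growth inhibition of human ONS-76 cells, read out with a cell viability assay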
# Description: SANGER: Inhibition of human ONS-76 cell growth in a cell viability assay.
# JVM-2 = type: functional, cell-based, Homo sapiens;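 also: growth inhibition of JVM-2 cells determined by a cell viability assay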
# Description: SANGER: Inhibition of human JVM-2 cell growth in a cell viability assay.
# HL-60 = type: functional, cell-based, Homo sapiens;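 also: growth inhibition of human HL-60 cells, read out with a cell viability assay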
# Description: SANGER: Inhibition of human HL-60 cell growth in a cell viability assay.
# EW-3 = type: functional, cell-based, Homo sapiens;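 also: cell viability assay read-out, IC50 reflects inhibition of growth of the EW-3 cells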
# Description: SANGER: Inhibition of human EW-3 cell growth in a cell viability assay.
# 697 = type: functional, cell-based, Homo sapiens
# Description: SANGER: Inhibition of human 697 cell growth in a cell viability assay.
# K562 = type: functional, cell-based, Homo sapiens
# Description: SANGER: Inhibition of human K-562 cell growth in a cell viability assay.
# DB = type: functional, cell-based, Homo sapiens
# Description: SANGER: Inhibition of human DB cell growth in a cell viability assay.
# SW982 = type: functional, cell-based; conditions: Homo sapiens;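 also: growth inhibition of SW982 cells, read out with a cell viability assay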
# Description: SANGER: Inhibition of human SW982 cell growth in a cell viability assay.
# NCI-H1650 = type: functional, cell-based, Homo sapiens;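 also: growth inhibition of human NCI-H1650 cells measured by a cell viability assay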
# Description: SANGER: Inhibition of human NCI-H1650 cell growth in a cell viability assay.
# KP-N-YS = type: functional, cell-based, Homo sapiens;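 also: cell viability assay measuring inhibition of cell line growth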
# Description: SANGER: Inhibition of human KP-N-YS cell growth in a cell viability assay.
# RCC10RGB = type: functional, cell-based, Homo sapiens;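 also: growth inhibition of human RCC10RGB cells, read out by a cell viability assay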
# Description: SANGER: Inhibition of human RCC10RGB cell growth in a cell viability assay.
# KNS-42 = type: functional, cell-based; conditions: Homo sapiens;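 also: growth inhibition of KNS-42 cells, read out with a cell viability assay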
# Description: SANGER: Inhibition of human KNS-42 cell growth in a cell viability assay.
# TE-11 = type: functional, cell-based; conditions: Homo sapiens;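 also: growth inhibition of human TE-11 cells, read out by a cell viability assay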
# Description: SANGER: Inhibition of human TE-11 cell growth in a cell viability assay.
# SCC-15 = type: functional, cell-based, Homo sapiens;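 also: growth inhibition of SCC-15 cells, read out with a cell viability assay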
# Description: SANGER: Inhibition of human SCC-15 cell growth in a cell viability assay.
# SF-539 = type: functional, cell-based, Homo sapiens;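 also: Read-out is a cell viability assay, with IC50 reflecting inhibition of cell growth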
# Description: SANGER: Inhibition of human SF539 cell growth in a cell viability assay.
# ES5 = type: functional, cell-based, Homo sapiens;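 also: growth inhibition of human ES5 cells, read out by a cell viability assay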
# Description: SANGER: Inhibition of human ES5 cell growth in a cell viability assay.
# EKVX = type: functional, cell-based, Homo sapiens;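 also: growth inhibition of human EKVX cells, read out with a cell viability assay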
# Description: SANGER: Inhibition of human EKVX cell growth in a cell viability assay.
# NCI-H2126 = type: functional, cell-based, Homo sapiens;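 also: growth inhibition of the cancer cell line, determined with a cell viability readout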
# Description: SANGER: Inhibition of human NCI-H2126 cell growth in a cell viability assay.
# HT-144 = type: functional, cell-based, Homo sapiens
# Description: SANGER: Inhibition of human HT-144 cell growth in a cell viability assay.
# MZ1-PC = type: functional, cell-based, Homo sapiens;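 also: cell viability assay measuring growth inhibition of human MZ1-PC cells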
# Description: SANGER: Inhibition of human MZ1-PC cell growth in a cell viability assay.
# RPMI-8866 = type: functional, cell-based, Homo sapiens
# Description: SANGER: Inhibition of human RPMI-8866 cell growth in a cell viability assay.
# KGN = type: functional, cell-based, Homo sapiens;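 also: growth inhibition of KGN cells, read out with a cell viability assay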
# Description: SANGER: Inhibition of human KGN cell growth in a cell viability assay.
# TGW = type: functional, cell-based, Homo sapiens; conditions: tgw;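 also: growth inhibition of human TGW cells, read out with a cell viability assay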
# Description: SANGER: Inhibition of human TGW cell growth in a cell viability assay.
smiles,measurement,setting,value
CN(NC(=O)CC(=O)NN(C)C(=S)c1ccccc1)C(=S)c1ccccc1 [ELESCLOMOL],IC50,"ES4; Homo sapiens, ES4",4.39 nM
same,IC50,"GI-ME-N; Homo sapiens, GI-ME-N",> 200 nM
same,IC50,"VA-ES-BJ; Homo sapiens, VA-ES-BJ",7.64 nM
same,IC50,"MN-60; Homo sapiens, MN-60",14.3 nM
same,IC50,TGBC24TKB,12.9 nM
same,IC50,"HCC2218; Homo sapiens, HCC2218",> 200 nM
same,IC50,"RXF 393; Homo sapiens, RXF 393",13.4 nM
same,IC50,"CTB-1; Homo sapiens, CTB-1",8.64 nM
same,IC50,"NCI-H446; Homo sapiens, NCI-H446",90.1 nM
same,IC50,"KURAMOCHI; Homo sapiens, KURAMOCHI",> 200 nM
same,IC50,"GOTO; Homo sapiens, GOTO",18.7 nM
same,IC50,"LU-139; Homo sapiens, LU-139",121 nM
same,IC50,"Mo; Homo sapiens, Mo",> 200 nM
same,IC50,"TGBC1TKB; Homo sapiens, TGBC1TKB",33.3 nM
same,IC50,"BB49-HNC; Homo sapiens, BB49-HNC",126 nM
same,IC50,"KALS-1; Homo sapiens, KALS-1",96.3 nM
same,IC50,no-10; Homo sapiens,> 200 nM
same,IC50,"SK-MEL-1; Homo sapiens, SK-MEL-1",> 200 nM
same,IC50,"MC116; Homo sapiens, MC116",> 200 nM
same,IC50,KS-1,13.8 nM
same,IC50,"NOS-1; Homo sapiens, NOS-1",< 0.781 nM
same,IC50,"ETK-1; Homo sapiens, ETK-1",35 nM
same,IC50,"LB831-BLC; Homo sapiens, LB831-BLC",27.7 nM
same,IC50,"MSTO-211H; Homo sapiens, MSTO-211H",> 200 nM
same,IC50,"EM-2; Homo sapiens, EM-2",> 200 nM
same,IC50,SH-4,> 200 nM
same,IC50,"KU812 cell line; Homo sapiens, KU812",> 200 nM
same,IC50,"IST-MEL1; Homo sapiens, IST-MEL1",11.3 nM
same,IC50,"ONS-76; Homo sapiens, ONS-76",10.3 nM
same,IC50,"JVM-2; Homo sapiens, JVM-2",> 200 nM
same,IC50,"HL-60; Homo sapiens, HL-60",66.8 nM
same,IC50,"EW-3; Homo sapiens, EW-3",39.9 nM
same,IC50,697; Homo sapiens,6.13 nM
same,IC50,"K562; Homo sapiens, K562",> 200 nM
same,IC50,"DB; Homo sapiens, DB",141 nM
same,IC50,SW982,7.44 nM
same,IC50,"NCI-H1650; Homo sapiens, NCI-H1650",30.4 nM
same,IC50,"KP-N-YS; Homo sapiens, KP-N-YS",79.9 nM
same,IC50,"RCC10RGB; Homo sapiens, RCC10RGB",> 200 nM
same,IC50,KNS-42,> 200 nM
same,IC50,TE-11,46.1 nM
same,IC50,"SCC-15; Homo sapiens, SCC-15",25.6 nM
same,IC50,"SF-539; Homo sapiens, SF-539",24.4 nM
same,IC50,"ES5; Homo sapiens, ES5",11.8 nM
same,IC50,"EKVX; Homo sapiens, EKVX",39.5 nM
same,IC50,"NCI-H2126; Homo sapiens, NCI-H2126",16.3 nM
same,IC50,"HT-144; Homo sapiens, HT-144",13 nM
same,IC50,"MZ1-PC; Homo sapiens, MZ1-PC",144 nM
same,IC50,"RPMI-8866; Homo sapiens, RPMI-8866",30 nM
same,IC50,"KGN; Homo sapiens, KGN",> 200 nM
CC(C)C[C@@H](C=O)NC(=O)[C@H](CC(C)C)NC(=O)[C@H](CC(C)C)NC(=O)OCc1ccccc1 [MG-132] (Cbz-Leu-Leu-Leu-aldehyde),IC50,ES4; es4,> 1000 nM
same,IC50,GI-ME-N; gi-me-n,193 nM and > 1000 nM
same,IC50,VA-ES-BJ; va-es-bj,223 nM and > 1000 nM
same,IC50,"MN-60; Homo sapiens, MN-60",> 1000 nM
same,IC50,MN-60; mn-60,> 1000 nM
same,IC50,TGBC24TKB,> 1000 nM
same,IC50,"HCC2218; Homo sapiens, HCC2218",> 1000 nM
same,IC50,HCC2218; hcc2218,> 1000 nM
same,IC50,RXF 393; rxf 393,250 nM and > 1000 nM
same,IC50,CTB-1; ctb-1,780 nM and > 1000 nM
same,IC50,"NCI-H446; Homo sapiens, NCI-H446",> 1000 nM
same,IC50,NCI-H446; nci-h446,> 1000 nM
same,IC50,KURAMOCHI; kuramochi,> 1000 nM
same,IC50,"GOTO; Homo sapiens, GOTO",> 1000 nM
same,IC50,GOTO; goto,> 1000 nM
same,IC50,LU-139; lu-139,> 1000 nM
same,IC50,Mo; mo,518 nM and > 1000 nM
same,IC50,TGBC1TKB; tgbc1tkb,> 1000 nM and 686 nM
same,IC50,BB49-HNC; bb49-hnc,491 nM and > 1000 nM
same,IC50,KALS-1; kals-1,466 nM and > 1000 nM
same,IC50,no-10,89.1 nM and 608 nM
same,IC50,"SK-MEL-1; Homo sapiens, SK-MEL-1",> 1000 nM
same,IC50,SK-MEL-1; sk-mel-1,> 1000 nM
same,IC50,MC116; mc116,> 1000 nM
same,IC50,NOS-1; nos-1,> 1000 nM
same,IC50,"ETK-1; Homo sapiens, ETK-1",> 1000 nM
same,IC50,ETK-1; etk-1,> 1000 nM
same,IC50,LB831-BLC; lb831-blc,193 nM and 476 nM
same,IC50,MSTO-211H; msto-211h,> 1000 nM
same,IC50,EM-2; em-2,> 1000 nM and 878 nM
same,IC50,"KU812 cell line; Homo sapiens, KU812",> 1000 nM
same,IC50,KU812 cell line; ku812,> 1000 nM
same,IC50,IST-MEL1; ist-mel1,> 1000 nM
same,IC50,ONS-76; ons-76,129 nM and 899 nM
same,IC50,JVM-2; jvm-2,> 1000 nM
same,IC50,HL-60; hl-60,> 1000 nM
same,IC50,EW-3; ew-3,> 1000 nM
same,IC50,697,> 1000 nM
same,IC50,TGW,> 1000 nM
same,IC50,K562; k562,> 1000 nM
same,IC50,DB; db,> 1000 nM
same,IC50,SW982,> 1000 nM
same,IC50,NCI-H1650; nci-h1650,> 1000 nM
same,IC50,KP-N-YS; kp-n-ys,> 1000 nM
same,IC50,"RCC10RGB; Homo sapiens, RCC10RGB",> 1000 nM
same,IC50,RCC10RGB; rcc10rgb,> 1000 nM
same,IC50,TE-11,> 1000 nM
same,IC50,SCC-15; scc-15,> 1000 nM
same,IC50,SF-539; sf-539,> 1000 nM
same,IC50,ES5; es5,> 1000 nM
same,IC50,EKVX; ekvx,> 1000 nM
same,IC50,NCI-H2126; nci-h2126,627 nM and > 1000 nM
same,IC50,HT-144; ht-144,139 nM and 334 nM
same,IC50,"MZ1-PC; Homo sapiens, MZ1-PC",> 1000 nM
same,IC50,MZ1-PC; mz1-pc,> 1000 nM
same,IC50,"RPMI-8866; Homo sapiens, RPMI-8866",> 1000 nM
same,IC50,RPMI-8866; rpmi-8866,> 1000 nM
same,IC50,"KGN; Homo sapiens, KGN",> 1000 nM
same,IC50,KGN; kgn,> 1000 nM
